From US9643933B2, “Compounds useful as antibiotic tolerance inhibitors” (priority 2013, dated 2017)
Like-named read-outs stand apart in the source and are kept apart here.

Key:
Pyocyanin = Pyocyanin Inhibition Assay; format: cell-based, P. aeruginosa, strain PA14
Procedure, shortened: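 P. aeruginosa PA14 at OD600=0.04 in LB grown 24 h at 37° C with shaking alongside compound (0.0032-31.6 micromolar, seven points, 0.5% DMSO final). Pyocyanin in supernatant quantified from A690 (ε 4,310 M^−1 cm^−1); % inhibition versus untreated culture, IC50 by four-parameter logistic fit.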

PQS = PQS Inhibition Assay (24 Hour Incubation); format: cell-based, P. aeruginosa PA14 wild-type strain
Method: Test compounds are dissolved in DMSO at 10 mM and stored at −20° C. until needed. Seven test concentrations from 0.0032 micromolar to 31.6 micromolar are used for each compound. P. aeruginosa PA14 wild-type strain is inoculated into 5 mL LB broth in a 15-mL sterile glass culture tube and incubated overnight at 37° C. under shaking (˜240 rpm). The overnight culture is then diluted in LB Broth to give an OD600=0.04 (T0 culture). Colony Forming Units (CFU)/mL of the overnight culture and T0 culture are determined by a series of 1:10 serial dilutions in sterile saline. 4×20 μL of each dilution is seeded on LB agar plates and incubated at 35±2° C. for 20 hours. CFU/mL is determined from the dilution that gives 2 to 50 colonies/20 μL.
For concentration response curve (CRC) experiments, internal standard (2-((5-nitro-1H-indol-2-yl)thio)-N-(4-phenoxyphenyl)acetamide)) and test compounds are serially diluted in DMSO to give 200 times of each final concentration (0.5% DMSO final), and 1 μL/well is dispensed in duplicate into 2-mL wells of a 96 well deep well plate. 200 μL/well of T0 culture is added to each internal standard/test compound well used to determine PQS control level. Wells containing only LB broth (blank wells) are also included in the plate.
The plate is sealed and incubated at 37° C. for 24 hours under shaking (˜700 rpm) using a microtiter shaker. At the end of the incubation period, 150 μL/well of the deep well plate culture are transferred in a new non-sterile plate, and 150 μL/well of methanol containing tetra-deuterated PQS (D4-PQS) and 2% acetic acid are added to each well. The plate is sealed, shaken at high speed for 5 minutes and centrifuged at 4,000 g for 40 minutes at room temperature. 100 μL/well of the supernatant is then transferred to glass vials (vials crimp 0.2 mL) and kept at 4° C. until LC-MS/MS analysis.
PQSs quantification is carried out by analyzing samples in discrete batches together with spiked standards and blank samples.
Calibration curves are constructed from PQS standards, and respective deuterated PQS is used as an Internal Standards (IS) to calculate the concentration of analytes in the sample and improve the precision of the assay. The back-calculated concentrations of the calibration standards from the calibration curve shall be within ±20% of the nominal values, the range of the analytical method is determined, and the lower and upper limit of quantification specified.
Liquid chromatography separations are performed using an Agilent HP1100 system (Agilent Technologies) coupled with a CTC PAL Autosampler (CTC Analytics AG). Chromatographic retention is obtained using a monolithic column (Chromolith® RP-18, 50×4.6 mm). The solvent system consists of water containing 0.1% (v/v) formic acid (A) and acetonitrile containing 0.1% (v/v) formic acid (B). The gradient elution profile is chosen as follows: 0 min: 70% A (1500 μL/min), 0.3 min: 70% A (1500 μL/min), 1.3 min: 5% A (2500 μL/min), 1.6 min: 5% A (2500 μL/min).
The MS/MS analysis is performed with an API4000 series mass spectrometer (AB Sciex™) operating in Multiple Reaction Monitoring (MRM) mode and equipped with a TIS ion source. The specific ions monitored are PQS (m/z 260→m/z 175) and D4-PQS (m/z 264→m/z 179). The computer systems used in this study to acquire and quantify data may be an Analyst™ v1.5.
PQS in the presence of different concentrations of test compound are expressed as percentage of inhibition of the basal level in control samples. Curve fitting and IC50 estimations are carried out using a four parameter logistic model using GraphPad Prism v.5 program.

[1] = Pseudomonas aeruginosa, PA14, 24 h, read-out: Pyocyanin Inhibition No. IC50 (μM)
[2] = Pseudomonas aeruginosa, PA14, 24 h, read-out: PQS (24 hr) IC50 (μM)

Molecule	IC50 (Pyocyanin; P. aeruginosa PA14 culture, 24 hours at 37° C., pyocyanin in supernatant by absorbance at 690 nm, read-out: Pyocyanin Inhibition No. IC50) [µM]	IC50 (PQS; P. aeruginosa PA14 culture, 24 hours incubation, PQS by LC-MS/MS, read-out: PQS (24 hr) IC50) [µM]	IC50 (Pyocyanin; [1]) [µM]	IC50 (PQS; [2]) [µM]
2-((5-chloro-1H-benzo[d]imidazol-2-yl)thio)-N-(4-(pyrimidin-5-yloxy)phenyl)acetamide [Compound 79]	< 0.1	< 1	–	–
N#Cc1ccc(NC(=O)CSc2nc3cc(C(F)(F)F)ccc3[nH]2)cc1 [Compound 56]	–	–	< 0.1	< 1
N#Cc1ccc(NC(=O)CSc2nc3cc(F)ccc3[nH]2)cc1 [Compound 57]	–	–	0.1 to 1	1 to 5
O=C(CNc1nc2cc(Cl)ccc2s1)Nc1ccc(Oc2cccnc2)cc1 [Compound 71, 2-((5-chlorobenzo[d]thiazol-2-yl)amino)-N-(4-(pyridin-3-yloxy)phenyl)acetamide]	–	–	0.1 to 1	5 to 10
O=C(CNc1nc2cc(Cl)ccc2o1)Nc1ccc(Oc2cccnc2)cc1 [Compound 74, 2-((5-chlorobenzo[d]oxazol-2-yl)amino)-N-(4-(pyridin-3-yloxy)phenyl)acetamide]	–	–	0.1 to 1	1 to 5
O=C(CSc1nc2cc(Cl)ccc2[nH]1)Nc1ccc(Oc2cccnc2)cc1 [Compound 77, 2-((5-chloro-1H-benzo[d]imidazol-2-yl)thio)-N-(4-(pyridin-3-yloxy)phenyl)acetamide]	–	–	< 0.1	< 1
O=C(CSc1nc2cc(Cl)ccc2[nH]1)Nc1ccc(Oc2cccnc2Cl)cc1 [Compound 83, 2-((5-chloro-1H-benzo[d]imidazol-2-yl)thio)-N-(4-((2-chloropyridin-3-yl)oxy)phenyl)acetamide]	–	–	< 0.1	< 1
O=C(CSc1nc2cc(Cl)ccc2[nH]1)Nc1ccc(Oc2ccc(Cl)nc2)cc1 [Compound 84, 2-((5-chloro-1H-benzo[d]imidazol-2-yl)thio)-N-(4-((6-chloropyridin-3-yl)oxy)phenyl)acetamide]	–	–	< 0.1	1 to 5
O=C(CCc1nc2cc(Cl)ccc2s1)Nc1ccc(Oc2cccnc2)cc1 [Compound 85, 3-(5-chlorobenzo[d]thiazol-2-yl)-N-(4-(pyridin-3-yloxy)phenyl)propanamide]	–	–	0.1 to 1	> 10
O=C(CCc1nc2ccc(Cl)cc2s1)Nc1ccc(Oc2cccnc2)cc1 [Compound 86, 3-(6-Chlorobenzo[d]thiazol-2-yl)-N-(4-(pyridin-3-yloxy)phenyl)propanamide]	–	–	0.1 to 1	> 10
N#Cc1ccc(NC(=O)CSc2nc3ccc(C#N)cc3[nH]2)cc1 [Compound 93]	–	–	0.1 to 1	< 1
N#Cc1ccc2nc(SCC(=O)Nc3ccc(Cl)cc3)[nH]c2c1 [Compound 94]	–	–	0.1 to 1	1 to 5
N#Cc1ccc(NC(=O)CSc2nc3cc(Br)ccc3[nH]2)cc1 [Compound 96]	–	–	< 0.1	< 1
N#Cc1ccc(NC(=O)CSc2nc3cc(OC(F)F)ccc3[nH]2)cc1 [Compound 104]	–	–	0.1 to 1	5 to 10
O=C(CSc1nc2cc(C(F)(F)F)ccc2[nH]1)Nc1ccc(Cl)cc1 [Compound 105]	–	–	0.1 to 1	1 to 5
O=C(CSc1nc2cc(F)ccc2[nH]1)Nc1ccc(Cl)cc1 [Compound 110]	–	–	0.1 to 1	5 to 10
O=C(CSc1nc2ccc(-n3cccn3)cc2[nH]1)Nc1ccc(Cl)cc1 [Compound 116]	–	–	0.1 to 1	> 10
N#Cc1ccc(NC(=O)CSc2nc3cc(Cl)ccc3[nH]2)cc1 [Compound 125]	–	–	< 0.1	< 1
O=C(CSc1nc2cc(F)c(F)cc2[nH]1)Nc1ccc(Br)cc1 [Compound 126]	–	–	0.1 to 1	> 10
O=C(CSc1nc2ccc(Cl)cc2[nH]1)Nc1ccc(Cl)cc1 [Compound 137]	–	–	0.1 to 1	1 to 5
COc1ccc(NC(=O)CSc2nc3ccc(Cl)cc3[nH]2)cc1 [Compound 140]	–	–	0.1 to 1	5 to 10
N#Cc1ccc(NC(=O)CSc2nc3cc(Cl)ccc3[nH]2)cc1Cl [Compound 142]	–	–	0.1 to 1	< 1
O=C(CSc1nc2ccc(Br)cc2[nH]1)Nc1ccc(Cl)cc1 [Compound 145]	–	–	0.1 to 1	> 10
N#Cc1ccc(NC(=O)CSc2nc3cc(Br)ccc3o2)cc1 [Compound 147]	–	–	0.1 to 1	1 to 5
O=C(CCc1nc2ccc(Cl)cc2[nH]1)Nc1ccc(Oc2cccnc2)cc1 [Compound 152, 3-(5-chloro-1H-benzo[d]imidazol-2-yl)-N-(4-(pyridin-3-yloxy)phenyl)propanamide]	–	–	0.1 to 1	1 to 5
